Experimental findings from US12097174B2, “Methods and agents that enhance myogenic progenitor cell engraftment” (President and Fellows of Harvard College, priority 2018, dated 2024) are described below.

“Also recorded” adds a separate entry of the source.

In assay [1] the test system is sapje-like (sap^c/100) fish. Description: Swimming performance of sapje-like fish before and after transplantation of treated ZeMPCs. It counts as in vivo, zebrafish. The note with it: cells treated before transplant; tested 7 days after transplant, flow about 5.5 L/min. How it is done:
Finally, to assess the functionality of myogenic precursors exposed to NFA and/or LPA prior to muscle engraftment, the swimming performance of sapje-like fish was evaluated before and after transplantation. […] Recipient sapje-like fish were irradiated and injected with healthy ZeMPCs, exposed prior to transplant to NFA, LPA or vehicle alone, on both flanks at 3 dorsal points on each side-in the tail, beneath the dorsal fin, and in the trunk-with 25 cells per injection. Immediately prior to transplant, and again 7 days after transplant, muscle function was tested in a modified Blazka-type swim chamber, in which a flow rate of approximately 5.5 L/min was introduced to test swimming performance (FIG. 16A). […] Because only the treated cells were transplanted, after removal of the compounds, it was concluded from these studies that the swimming performance of these transplanted sapje-like fish was improved as a result of better engraftment by NFA-treated or LPA-treated ZeMPCs. Juvenile zebrafish from a sapje-like transgenic line were fin-clipped and genotyped to identify heterozygotes. A flow-through modified Blazka-type swim chamber was creating using a horizontal acrylic tank with dimensions of 350 mm 1×47 mm w×90 mm d. […] The raw digital file was then analyzed for movement within the swim area. The distance from the flow source was quantified using MATLAB (MathWorks).

The subject of the next assay is C2C12 cells. Description: Calcium imaging in Fura-2, AM treated C2C12 cells (single-cell imaging). The format is cell-based, mouse. The following applies: 10 μM NFA, 5 μM LPA; 10-20 seconds after loading. How it is done:
Fura-2, AM treated C2C12 cells were exposed to 10 μM NFA, 5 μM LPA or DMSO as vehicle control to visualize the effect on intracellular calcium ion concentration using single-cell imaging. […] Scale bar 50 μm.
The ZeMPCs and C2C12 cells were incubated with Fura-2, AM (Thermo Fisher Sci F1225), a cell permeant fluorescent calcium ion indicator, for 45 minutes at 28.5° C. and 37° C., respectively, followed by imaging with Celldiscoverer7 Microscope (Zeiss). 20 seconds after imaging initiation the treatment was added to the cells and continued for a total of 2-3 minutes.

The test system of the next assay is mouse satellite cells. Description: Mouse satellite cell transplantation into pre-injured TA muscle, engraftment by bioluminescence imaging (BLI). It counts as in vivo. The following applies: for BLI radiance (mean±SEM): 10 μM NFA (n=13) or 5 μM LPA (n=17) prior to transplant, vehicle 8,214,000±1,462,346; for engraftment efficiency of mouse satellite cells: 4 h at 37° C. with 10 μM NFA or 5 μM LPA, 5000 cells per recipient. Here is the method:
Specifically, BLI radiance (mean±SEM) for muscle precursors treated with 10 μM NFA or 5 μM LPA prior to transplant were 27,236,923±6,849,754 p/s (n=13) and 25,637,059±4,410,195 p/s (n=17), respectively, in comparison to 8,214,000±1,462,346 p/s (n=15) vehicle-treated cells (1-way ANOVA between vehicle-treated group and either NFA or LPA treated group, p≤0.01) (FIGS. 8A-8C).
To this end, mouse satellite cells were again sorted from double-transgenic (luc+GFP+) mice and exposed them to NFA, LPA, or vehicle (DMSO) under the optimal dose conditions established using the fish model (see above; 4 h. treatment at 37° C. with 10 μM of NFA or 5 μM of LPA), prior to transplant. Compound-treated cells were then recovered and, after washing out the media containing the compounds (NFA, LPA or DMSO), counted and transplanted at 5000 cells per recipient into the pre-injured TA muscles of non-transgenic FVB hosts. The kinetics of muscle engraftment were subsequently assessed by weekly BLI imaging of transplanted limbs. Similar to the fish experiments, both NFA and LPA enhanced the engraftment efficiency of mouse satellite cells in these in vivo transplantation assays (FIGS. 14C and 14D), indicating conserved effects of these pro-myogenic compounds on mammalian muscle precursor cells.
Mouse satellite cells were isolated as previously described (Maesner et al., 2016; Sherwood et al., 2004; Xu et al., 2013). 25 μl (0.03 mg/ml) of cardiotoxin (CDTX) (Latoxan) was injected 24 h prior to transplantation into the TA muscle of recipient mice (FVB/NJ). Luc-GFP tagged satellite cells were isolated and plated on a collagen/laminin-coated plate and treated with NFA (10 μM), LPA (5 μM) or DMSO, as the vehicle control, in culture media for 4 hours at 37° C. The culture media contained 78% F10 (GIBCO), 20% horse serum (Atlanta Biologics), 1% penicillin-streptomycin (Invitrogen), 1% GlutaMAX (Invitrogen), and 5 ng/ml bFGF (Sigma). After 4 hours, cells were washed with DPBS, harvested, and counted, followed by transplantation of 5000 satellite cells intramuscularly into the CDTX pre-injured TA of FVB recipients.
Mice were anesthetized with isoflurane and weighed. 150 mg/kg of luciferin (Goldbio) was administered by IP injection. BLI was acquired using IVIS Spectrum every 2 minutes, at F-stop=1.0 at 5 min after luciferin injection. The acquired images were analyzed and the highest captured radiance in the region of interest (ROI) was measured.

Another assay deals with muscle progenitor cells. The assay is described as follows: Measurement of Ca2+ transients in fura-2 AM-loaded muscle progenitor cells. It counts as cell-based. How it is done:
Measurement of Ca2+ transients was performed in fura-2 AM-loaded cells.
Thus, it is possible that the enhanced engraftment capacity of muscle progenitor cells exposed to these compounds involves a common Ca^2+-dependent signaling events (FIG. 9).

On to lysophosphatidic acid [LPA], for which the “swimming performance vs fish engrafted with vehicle-treated cells” value in assay [1] was “better swimming performance; also recorded: performed significantly better”. For the same molecule, the “intracellular calcium ion concentration” value with C2C12 cells is given as “increase”. In the assay on mouse satellite cells, the “BLI radiance (mean±SEM)” value is listed as 25,637,059±4,410,195 p/s and the “engraftment efficiency of mouse satellite cells” value is listed as “enhanced”. The “cytoplasmic Ca2+ concentration” value in the assay on muscle progenitor cells is on record as “stimulate increases”.
In the same order, the values of `O=C(O)c1cccnc1Nc1cccc(C(F)(F)F)c1` [NFA, niflumic acid] are “better swimming performance; also recorded: performed significantly better”, “increase”, 27,236,923±6,849,754 p/s, “enhanced” and “stimulate increases”.
